Values of other authors in patent US20080299102A1, “Novel BACE proteins, nucleic acid molecules therefor, novel crystal structure of novel BACE proteins, and methods for making and using” (priority 2001, published 2008).
Where a SMILES comes first, the peptide text is derived from it. [ ]: non-standard residue; d: D form. The star is where a group is joined. Sta = CC(C)C[C@H](N)[C@@H](O)CC(=O)O; Isovaleryl = CC(C)CC(=O)*

Molecular target: BACE (Homo sapiens, UniProt P56817)
Details: general statement in the description, no test data given

BACE, sequence (P56817 46-501): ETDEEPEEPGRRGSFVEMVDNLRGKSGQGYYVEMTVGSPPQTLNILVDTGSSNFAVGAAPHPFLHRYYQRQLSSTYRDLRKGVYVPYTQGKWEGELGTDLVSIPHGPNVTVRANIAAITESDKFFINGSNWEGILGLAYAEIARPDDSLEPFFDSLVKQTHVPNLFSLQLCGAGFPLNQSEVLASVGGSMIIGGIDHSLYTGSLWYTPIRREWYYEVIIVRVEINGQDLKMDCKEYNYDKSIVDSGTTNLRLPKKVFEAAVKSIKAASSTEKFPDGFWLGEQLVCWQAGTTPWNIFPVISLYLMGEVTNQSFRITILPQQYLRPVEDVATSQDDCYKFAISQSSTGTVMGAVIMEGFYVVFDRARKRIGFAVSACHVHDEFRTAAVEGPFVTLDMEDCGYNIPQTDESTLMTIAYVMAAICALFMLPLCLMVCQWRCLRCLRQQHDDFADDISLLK

- inhibition of BACE: not inhibited
SMILES: CC(C)CC(=O)N[C@H](C(=O)N[C@H](C(=O)N[C@@H](CC(C)C)[C@@H](O)CC(=O)N[C@@H](C)C(=O)N[C@@H](CC(C)C)[C@@H](O)CC(=O)O)C(C)C)C(C)C [pepstatin] (Isovaleryl-VV[Sta]A[Sta]-OH)
